Source: US4491594A, “Method for treatment of seizures” (Eisai Co., Ltd., priority 1983, dated 1985)

Experiments:
[1] = system: penicillin cortical focus; experiment: EEG spike discharge in penicillin cortical focus epilepsy model (Co Q10 given after penicillin G); type: in vivo, Male Sprague-Dawley rats
Description: (§1) Male Sprague-Dawley rats each having a body weight in the range of 250 to 350 g were used for the experiment.
(§2) Each test rat, anesthetized with ether and immobilized with succinylcholine was subjected to tracheal intubation and fixed to a stereotaxic instrument under artificial respiration. A hole about 3 mm in diameter was made at a part of the skull corresponding to the left-side sensory-motor cortex and the dura mater was cut out to expose the cerebral cortex surface. The skull was immersed in a physiological saline solution. A 2 mm square filter paper impregnated with […] of penicillin (penicillin G) was then applied directly to the cerebral surface to form a penicillin cortical focus. This focus is a typical epilepsy model.
Each rat skull was bared and screw electrodes, four in all, were fixedly planted at the following four locations: two sites 2 mm to the left and right, respectively, from a position 2 mm forward of the bregma, and two sites 3 mm to the left and right, respectively, from a position 6 mm rearward of the bregma. Unipolar and bipolar electroencephalograms (EEG) were recorded by the electrodes. Electrocardiogram readings were simultaneously taken. EEG lead measurements were conducted of (1) four bipolar leads comprising a lead from the left sincipital region to the left occipital region, a lead from the right sincipital region to the right occipital region, a lead from the left to the right sincipital region, and a lead from the left to the right occipital region, and (2) four unipolar leads comprising leads from each of the left sincipital region, left occipital region, right sincipital region and right occipital region.
The corticogram shown in FIG. 6 illustrates the procedure employed. The recordings were carried out from 4 epidural electrodes. LF-LO: bipolar recording from left frontal electrode (LF) to left occipital electrode (LO), RF-RO: bipolar recording from right frontal electrode (RF) to right occipital electrode (RO), LF-RF: bipolar recording from LF to RF, LO-RO: bipolar recording from LO to RO, LF-E: unipolar recording from LF, LO-E: unipolar recording from LO, RF-E: unipolar recording from RF, RO-E: unipolar recording from RO.
83.5 U/μl of penicillin G was absorbed into a 2 mm square filter paper and directly applied to the cerebral cortex surface from an opening formed around the left sensory-motor cortex. coenzyme Q10 (Co Q10) was administered intraperitoneally to each rat, and the EEG patterns were recorded in the same way as above. As a control, a solvent alone was administered intraperitoneally to control rats at the same rate.
Further experiments were conducted by the same procedure as used in Experimental Example 1, except that the time of the administration of coenzyme Q10 was changed. The results are shown in Table 1 below as Experimental Examples 2 to 4. In Table 1, PCG represents penicillin G.

[2] = system: penicillin cortical focus; experiment: Prevention of EEG spike discharge in penicillin cortical focus model (Co Q10 given before penicillin G); type: in vivo, Male Sprague-Dawley rats; settings: Table 1, Experimental Example 4; 100 mg/kg Co Q10 first, PCG applied 64 minutes thereafter
Description: as §1, §2
Each rat skull was bared and screw electrodes, four in all, were fixedly planted at the following four locations: two sites 2 mm to the left and right, respectively, from a position 2 mm forward of the bregma, and two sites 3 mm to the left and right, respectively, from a position 6 mm rearward of the bregma. Unipolar and bipolar electroencephalograms (EEG) were recorded by the electrodes. Electrocardiogram readings were simultaneously taken. […]

Acute toxicity, rat = settings: in vivo, read-out: acute dosages
Description: (§3) The results of toxicity tests on coenzyme Q10 used in this invention are shown below.

Acute toxicity, mouse = settings: in vivo, read-out: acute dosages
Description: as §3

Wistar rats = experiment: Chronic toxicity, 26 weeks per os; type: in vivo, male and female Wistar rats; settings: 6, 60 and 600 mg/kg/day per os, 26 successive weeks
Protocol: Coenzyme Q10 was forcibly administered per os to both male and female Wistar rats at doses of 6, 60 and 600 mg/kg/day for a period of 26 successive weeks. After this testing period, an examination of the general condition, a blood test, a urine test and a morphological observation (macroscopic and histologic) were conducted.

Solubility = type: physicochemical
[3] = Experimental Example 1, intraperitoneal
[4] = Table 1, Experimental Example 2, 100 mg/kg, 107 minutes after applying PCG
[5] = Table 1, Experimental Example 3, 100 mg/kg, 65 minutes after applying PCG

## COC1=C(OC)C(=O)C(C/C=C(\C)CC/C=C(\C)CC/C=C(\C)CC/C=C(\C)CC/C=C(\C)CC/C=C(\C)CC/C=C(\C)CC/C=C(\C)CC/C=C(\C)CCC=C(C)C)=C(C)C1=O [coenzyme Q10]
[1]; [3]
  duration of disappearance of the spike discharge: more than 200 minutes
  time to disappearance of the spike discharge after administration of coenzyme Q10: about 10 minutes
[1]; [4]
  duration of disappearance of the spike discharge: more than 120 minutes
  time to disappearance of the spike discharge after administration of Co Q10: 20 min
[1]; [5]
  duration of disappearance of the spike discharge: more than 60 minutes
  time to disappearance of the spike discharge after administration of Co Q10: 19 min
[2]
  time during which no spike discharge occurred: more than 80 minutes
Acute toxicity, rat; im, intramuscular
  LD50: 500 mg/kg
Acute toxicity, rat; iv, Intravous
  LD50: 250 mg/kg
Acute toxicity, rat; oral
  LD50: 4000 mg/kg
Acute toxicity, rat; sc, subcutaneous
  LD50: 500 mg/kg
Acute toxicity, mouse; im, intramuscular
  LD50: 500 mg/kg
Acute toxicity, mouse; iv, Intravous
  LD50: 250 mg/kg
Acute toxicity, mouse; oral
  LD50: 4000 mg/kg
Acute toxicity, mouse; sc, subcutaneous
  LD50: 500 mg/kg
Wistar rats
  general condition, blood test, urine test and morphological observation vs control group: No differences at all from the control group were observed
Solubility; in chloroform, benzene, carbon tetrachloride, acetone and ether
  solubility: soluble
Solubility; in ethanol, water and methanol
  solubility: insoluble
